Reference: patent US6737383B1, “Herbicidal oxadiazolidines” (priority 1999, dated 2004)

Tested on: purple nutsedge
Assay: Test D purple nutsedge
Type: in vivo, Cyperus rotundus
Settings: Postemergence, 0 to 100 scale
[1] = Rate 64 g/ha, 0 no injury, 100 complete control
[2] = Rate 16 g/ha, 0 no injury, 100 complete control
[3] = Rate 32 g/ha, 0 no injury, 100 complete control
[4] = Rate 125 g/ha, 0 no injury, 100 complete control

CC(C)Cn1c(=O)on(C(=O)N(c2ccc(F)cc2)C(C)C)c1=O [Compound 169]
0: Purple nutsedge plant response rating [1]

CC(C)N(C(=O)n1oc(=O)n(C2CC2)c1=O)c1ccc(Cl)cc1 [Compound 241]
0: Plant response rating, Purple nutsedge [2] | Plant response rating, Purple nutsedge [3] | Purple nutsedge plant response rating [1] | Purple nutsedge plant response rating [4] | Plant response rating, Purple nutsedge (Rate 250 g/ha)

CC(C)N(C(=O)n1oc(=O)n(C2CCC2)c1=O)c1ccccc1 [Compound 348]
0: Plant response rating, Purple nutsedge [2] | Plant response rating, Purple nutsedge [3] | Purple nutsedge plant response rating [1] | Purple nutsedge plant response rating [4] | Plant response rating, Purple nutsedge (Rate 250 g/ha)

CC(C)N(C(=O)n1oc(=O)n(C2CCC2)c1=O)c1ccc(Cl)cc1 [Compound 349]
0: Plant response rating, Purple nutsedge [2] | Plant response rating, Purple nutsedge [3] | Purple nutsedge plant response rating [1] | Purple nutsedge plant response rating [4] | Plant response rating, Purple nutsedge (Rate 250 g/ha)
